Test results reported in PMC12196235, “Enhancing the Pharmacological Properties of Triterpenes Through Acetylation: An Anticancer and Antioxidant Perspective” (Molecules, 2025).
pIC50: −log10 of the molar value. Several values for one entry are separate records, joined by “and”; a condition that tells them apart may be missing. Identical values can stand only once. Like-named read-outs stand apart in the source and are kept apart here.

Experiments:
[1] = system: KB (human oral squamous carcinoma); assay: MTT assay, KB; type: cell-based; conditions: for pIC50: MTT assay, KB; for Selectivity index (SI), KB: IC50 HDF / IC50 KB
Method: (§1) All the cell lines and mediums were obtained from the American Type Culture Collection (ATCC) supplied by LGC-Standards (Lomianki, Poland). Human cancer cell lines were cultured as follows: HeLa (human cervix carcinoma) and KB (human oral squamous carcinoma) lines were cultured in DMEM (Dulbecco’s Modified Eagle’s Medium); MCF-7 (human breast carcinoma) and A-549 (human lung carcinoma) were cultured in RPMI 1640 medium; PC-3 (human prostate carcinoma) was cultured in F-12K medium; SKOV-3 (human ovarian cystadenocarcinoma) was cultured in McCoy’s modified medium; HDF (human normal dermal fibroblasts) was cultured in Fibroblast Basal Medium. Each medium was supplemented with 10% fetal bovine serum, 1% L- glutamine and 1% penicillin/streptomycin solution. The cell lines were kept in an incubator at 37 °C.
(§2) All the tested cell lines (HeLa, KB, MCF-7, A-549, PC-3, SKOV-3 and HDF) were subjected to MTT assay. In short, this assay is based on the reaction between mitochondria enzymes (dehydrogenases) of tested cell lines and 3-(4,5-dimethylthiazol-2-yl)-2,5-diphenyltetrazolium bromide (MTT). The final product of this reaction gives violet formazan crystals. The number of live cells is proportional to the amount of formazan and is represented by the violet dye reagent. The details of the experiments are given in [19].

[2] = system: J774A.1 (macrophage-like cell line); conditions: ref 106; cited from earlier work
[3] = system: A-549 (human lung carcinoma); assay: MTT assay, A-549; type: cell-based; conditions: for pIC50: MTT assay, A-549, read-out: IC50 (±SD), A-549; for Selectivity index (SI), A-549: IC50 HDF / IC50 A-549
Method: as §1, §2

[4] = DPPH antioxidant assay; conditions: calculated from Trolox standard curve
Method: (§3) The results are presented as % inhibition of the copper(II) ions and Trolox equivalent calculated from the standard curve (Figure 9) and as % inhibition of the DPPH radical and Trolox equivalent, calculated from the standard curve (Figure 10).
(§4) The CUPRAC reagent (7.5 mM ethanolic 96% neocuproine solution, 10 mM CuCl2 × H2O solution and an ammonium acetate buffer of pH 7.0) and DPPH reagent (2,2-diphenyl-1-picrylhydrazyl 0.2 mM solution) were applied.
(§5) The CUPRAC method measures the reducing power of a sample by quantifying its ability to convert the Cu-neocuproine reagent complex to the Cu(I) form. In contrast, the DPPH assay relies on the ability of an antioxidant to donate a hydrogen atom or an electron to the stable DPPH radical, resulting in its reduction and subsequent color change. The results are presented as % inhibition of the copper(II) ions and Trolox equivalent calculated from the standard curve (Figure 9) and as % inhibition of the DPPH radical and Trolox equivalent, calculated from the standard curve (Figure 10). The spectroscopic detection in CUPRAC and DPPH assays was conducted with Synergy H1 Multi-Mode Microplate Reader (BioTek Instruments, Inc., Winooski, VT, USA). The details of the experiments are given in [102].

[5] = system: RAW 264.7; conditions: ref 106; cited from earlier work
[6] = system: SKOV-3 (human ovarian carcinoma); assay: MTT assay, SKOV-3; type: cell-based; conditions: for pIC50: MTT assay, SKOV-3, read-out: IC50 (±SD), SKOV-3; for Selectivity index (SI), SKOV-3: IC50 HDF / IC50 SKOV-3
Method: as §1, §2

[7] = system: SKOV-3; assay: Apoptosis assay (Cell Death Detection ELISA Plus), SKOV-3; type: cell-based, human; conditions: SKOV-3, 4 h incubation, enrichment of mono- and oligonucleosomes vs negative control
Method: (§6) The induction of apoptosis by tested compounds was determined with Cell Death Detection ELISA Plus from Roche Diagnostics GmbH (Mannheim, Germany).
(§7) Cell Death Detection ELISA Plus is an enzyme immunoassay for determining cytoplasmic histone-associated DNA fragments (mono- and […]) after induced cell death. Cells (10^4) were pipetted into wells of 96-well plates, and test compounds were added at final concentrations of 0.1, 1.0 and 10.0 µg × mL^−1. Cells incubated in the absence of test compounds served as negative controls. After 4 h of incubation, cells were harvested by centrifugation of the plates for 10 min at 200× g. Supernatants were removed carefully, and cell pellets were resuspended in 200 µL of cell lysis buffer and incubated for 30 min at room temperature. After centrifugation of the plates (10 min at 200× g), 20 µL of cell lysates was transferred in duplicate into wells of provided streptavidin-coated microplates. Then, 80 µL of the immunoreagent containing a mixture of anti-histone-biotin monoclonal antibody and anti-DNA-peroxidase monoclonal antibody was added to each well. The microplates were covered with a provided adhesive foil and incubated for 2 h at room temperature. Thereafter, the solution in the wells was removed by tapping the microplate. The wells were rinsed three times with incubation buffer, and 100 µL of substrate (2,2′-azino-bis [3-ethylbenzothiazoline-6-sulphonic acid], ABTS) was added to each well. After 10–20 min, 100 µL of ABTS stop solution was pipetted to each well, and the absorbance was read at 405 nm (test wavelength) and 490 nm (reference wavelength). The apoptotic index was calculated based on the enrichment of mono- and oligonucleosomes according to the following equation:apoptotic index = [{A405(sample) − A490(sample)}/{A405(negative control) − A490(negative control)}]

[8] = system: PC-3; assay: Apoptosis assay (Cell Death Detection ELISA Plus), PC-3; type: cell-based, human; conditions: PC-3, 4 h incubation, enrichment of mono- and oligonucleosomes vs negative control
Method: as §6, §7

[9] = CUPRAC antioxidant assay; conditions: calculated from Trolox standard curve
Method: as §3, §4, §5

[10] = system: PC-3 (human prostate carcinoma); assay: MTT assay, PC-3; type: cell-based; conditions: for pIC50: MTT assay, PC-3, read-out: IC50 (±SD), PC-3; for Selectivity index (SI), PC-3: IC50 HDF / IC50 PC-3
Method: as §1, §2

[11] = system: HDF (human dermal fibroblasts); assay: MTT assay, normal HDF; type: cell-based; conditions: read-out: IC50 (±SD), HDF
Method: as §1, §2

[12] = system: KB (human oral squamous carcinoma); conditions: ref 104; cited from earlier work
[13] = system: HT-29 (human colorectal adenocarcinoma); conditions: ref 105; read-out: IC50 (HT-29); cited from earlier work
[14] = system: MCF-7 (human breast carcinoma); assay: MTT assay, MCF-7; type: cell-based; conditions: for pIC50: MTT assay, MCF-7, read-out: IC50 (±SD), MCF-7; for Selectivity index (SI), MCF-7: IC50 HDF / IC50 MCF-7
Method: as §1, §2

[15] = system: Hep-G2 (human hepatocellular carcinoma); conditions: ref 105; read-out: IC50 (Hep-G2); cited from earlier work
[16] = system: HeLa (human cervical epithelioid carcinoma); assay: MTT assay, HeLa; type: cell-based; conditions: for pIC50: MTT assay, HeLa, read-out: IC50 (±SD), HeLa; for Selectivity index (SI), HeLa: IC50 HDF / IC50 HeLa
Method: as §1, §2

[17] = system: HeLa, KB, MCF-7, A-549, PC-3 and SKOV-3; assay: MTT assay, summary over the cancer cell lines; type: cell-based, human; conditions: for cytotoxic activity class: classification by IC50 (good ≤ 10 μM, moderate 10–30 μM, ref 83)
Method: as §1, §2

[18] = system: B16-F10 (murine melanoma); conditions: cited from earlier work
[19] = system: A-549 (human lung carcinoma); conditions: ref 104; read-out: IC50 (A-549); cited from earlier work
[20] = system: KB-VIN (multidrug resistant human epidermoid carcinoma); conditions: ref 104; cited from earlier work

Compound	pIC50 ([1]; Homo sapiens)	Selectivity index (SI), KB [1]	pIC50 ([3]; Homo sapiens, A549)	Selectivity index (SI), A-549 [3]	Trolox Equivalent, DPPH Assay [4]	pIC50 ([6]; Homo sapiens, SK-OV-3)	Selectivity index (SI), SKOV-3 [6]	Apoptotic index (AI), SKOV-3 [7]	Apoptotic index (AI), PC-3 [8]	Trolox Equivalent, CUPRAC Assay [9]	pIC50 ([10]; Homo sapiens)	Selectivity index (SI), PC-3 [10]	pIC50 ([11]; Homo sapiens, Fibroblast)	pIC50 ([14]; Homo sapiens, MCF7)	Selectivity index (SI), MCF-7 [14]	pIC50 ([16]; Homo sapiens)	Selectivity index (SI), HeLa [16]	cytotoxic activity class [17]	pIC50 [1]	pIC50 [3]	also measured
CC(=O)O[C@H]1CC[C@]2(C)[C@H]3CC=C4[C@@H]5CC(C)(C)CC[C@]5(C(=O)O)CC[C@@]4(C)[C@]3(C)CC[C@H]2C1(C)C [1b, 3-O-Acetyloleanolic acid]	6.44	0.53	6.62	0.79	0.0143 ± 0.000592 mg/mL	7.05	2.11	6.79 (0.16)	6.90 (0.04)	0.2199 mg/mL and 0.2199 ± 0.00657 mg/mL	6.96	1.73	6.72	5.73	0.10	6.62	0.79	very high cytotoxic activity	–	–	pIC50 [2]: 4.77; pIC50 [5]: 4.86; pIC50 [12]: 5.12; pIC50 [13]: 3.83; pIC50 [15]: 3.98; pIC50 ([18]; ref 105): 4.19; pIC50 ([18]; ref 107): 4.19; pIC50 [19]: 5.24; pIC50 [20]: 5.12
CC(=O)OCC12CCC(C)(C)CC1C1=CCC3C4(C)CCC(OC(C)=O)C(C)(C)C4CCC3(C)C1(C)CC2 (stereo not shown) [2b, 3,28-di-O-Acetylerythrodiol]	4.30	1.06	4.29	1.03	0.00313 ± 0.00013 mg/mL	4.59	2.08	–	–	0.2402 mg/mL and 0.2402 ± 0.00995 mg/mL	4.60	2.11	4.27	4.21	0.86	4.15	0.75	–	–	–	–
CC1(C)CC[C@]23CC[C@]4(C)[C@H](CC[C@@H]5[C@@]6(C)CC[C@H](O)C(C)(C)[C@@H]6CC[C@]54C)[C@H]2[C@H]1OC3 [3a, allobetulin]	4.34	1.06	4.29	0.93	0.01677 ± 0.000694 mg/mL	4.68	2.30	5.78 (0.01)	5.27 (0.01)	0.08248 mg/mL and 0.08248 ± 0.005 mg/mL	4.70	2.39	4.32	4.15	0.68	4.31	0.97	–	–	–	pIC50 ([17]; Homo sapiens, MTT assay, range over tested cancer cell lines): 4.15 to 4.70
CC(=O)OC1CCC2(C)C(CCC3(C)C2CCC2C4C5OCC4(CCC5(C)C)CCC23C)C1(C)C (stereo not shown) [3b, 3-O-Acetylallobetulin]	–	–	–	–	0.00182 mg/mL and 0.00182 ± 0.000755 mg/mL	–	–	–	–	0.03212 mg/mL and 0.03212 ± 0.00166 mg/mL	–	–	–	–	–	–	–	–	< 4.00	< 4.00	pIC50 [6]: 4.27; pIC50 [10]: 4.28; pIC50 [11]: 4.21; pIC50 [14]: < 4.00; pIC50 [16]: < 4.00
C=C(C)C1CCC2(C(=O)O)CCC3(C)C(CCC4C5(C)CCC(OC(C)=O)C(C)(C)C5CCC43C)C12 (stereo not shown) [4b, 3-O-Acetylbetulinic acid]	5.82	1.92	5.91	2.34	0.00376 ± 0.000156 mg/mL	5.99	–	7.81 (0.02)	7.09 (0.01)	0.1999 mg/mL and 0.1999 ± 0.0015 mg/mL	6.03	–	5.54	5.82	1.92	5.79	1.77	very high cytotoxic activity	–	–	–
C=C(C)[C@@H]1CC[C@]2(C)CC[C@]3(C)[C@H](CC[C@@H]4[C@@]5(C)CC[C@H](OC(C)=O)C(C)(C)[C@@H]5CC[C@]43C)[C@@H]12 [6b, 3-O-Acetylolupeol]	–	–	–	–	0.00348 ± 0.000144 mg/mL	–	–	–	–	0.1349 ± 0.00514 mg/mL	–	–	–	–	–	–	–	–	4.14	4.25	pIC50 [6]: 4.68; pIC50 [10]: 4.65; pIC50 [11]: 4.46; pIC50 [14]: 4.30; pIC50 [16]: 4.14
